# Calls of active or inactive are those of the source. The rule behind the calls is not given here.
# Key:
# Rattus norvegicus [1] = assay: Antihepatotoxic activity Rattus norvegicus albino Wistar (rat) assessed as reduction of CCl4-induced increase of serum ALP level at 50 mg/kg, po relative to control; type: functional; design: scale not given: the % may be the effect or the level left
# Rattus norvegicus [2] = assay: Antihepatotoxic activity Rattus norvegicus albino Wistar (rat) assessed as reduction of CCl4-induced increase of serum SGPT level at 50 mg/kg, po relative to control; type: functional; design: scale not given: the % may be the effect or the level left
# Rattus norvegicus [3] = assay: Antihepatotoxic activity Rattus norvegicus albino Wistar (rat) assessed as reduction of CCl4-induced increase of serum SGOT level at 50 mg/kg, po relative to control; type: functional; design: scale not given: the % may be the effect or the level left
# Rattus norvegicus [4] = assay: Antihepatotoxic activity Rattus norvegicus albino Wistar (rat) assessed as reduction of CCl4-induced reduction of serum total protein level at 50 mg/kg, po relative to control; type: functional; design: scale not given: the % may be the effect or the level left
# Rattus norvegicus [5] = assay: Antihepatotoxic activity Rattus norvegicus albino Wistar (rat) assessed as recovery of CCl4-induced cell damage at 50 mg/kg, po by hematoxylin and eosin staining; type: functional, organism-based; design: dose 50 mg/kg
smiles,measurement,setting,value
C=C(C)C(/C=C/[C@@H](C)[C@H]1CCC2C3CC=C4C[C@@H](O[C@@H]5O[C@H](CO)[C@@H](O)[C@H](O)[C@H]5O)CC[C@]4(C)C3CC[C@@]21C)CC (stereo not given in full),Activity,Rattus norvegicus [1],74.77%
same,Activity,Rattus norvegicus [2],52.25%
same,Activity,Rattus norvegicus [3],57.71%
same,Activity,Rattus norvegicus [4],121.19%
same,Activity,Rattus norvegicus [5],Active
